Test results from patent publication US9982005B2, “Macrolides and methods of their preparation and use” (President and Fellows of Harvard College, priority 2013, dated 2018).
In brackets after ≈: the same amount, converted by molar mass. Read-outs that look alike come from different tables or passages of the source.

Experiments:
Assay type in all cases: cell-based
[1] = system: SA101 S. aureus ATCC29213; experiment: broth dilution MIC, S. aureus SA101; conditions: Staphylococcus aureus
Summary of the method: (§1)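 Standard CLSI broth dilution method used for MIC determination. Control: azithromycin.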

[2] = system: SA183 S. aureus ermA positive msrA unknown; experiment: broth dilution MIC, S. aureus SA183; conditions: Staphylococcus aureus
Excerpt: (§2) We have collected MIC data for a total of 50 novel macrolides that this platform has produced against over 21 unique strains of B. subtilis, E. coli, S. aureus, S. pneumoniae, and H. influenzae, including several multidrug-resistant strains, with a special focus on macrolide resistant mechanisms (vide supra). Azithromycin was included as a control macrolide. CLSI standard procedures for broth dilution MIC determination were used. […] These genotypes can be constitutive or inducible. The finding that C4-epi (unnatural) isomers of the “azaketolide” macrolide class have enhanced activities relative to C4 natural isomers is very exciting.

[3] = system: SA418 S. aureus ermA negative msrA positive; experiment: broth dilution MIC, S. aureus SA418; conditions: Staphylococcus aureus
Excerpt: as §2

[4] = system: SA506 S. aureus ermA positive msrA unknown; experiment: broth dilution MIC, S. aureus SA506; conditions: Staphylococcus aureus
Excerpt: as §2

[5] = system: SA557 S. aureus ermA unknown msrA positive; experiment: broth dilution MIC, S. aureus SA557; conditions: Staphylococcus aureus
Excerpt: as §2

[6] = system: SA1707 S. aureus ermA negative msrA positive; experiment: broth dilution MIC, S. aureus SA1707; conditions: Staphylococcus aureus
Excerpt: as §2

[7] = system: SA1708 S. aureus ermA positive msrA negative; experiment: broth dilution MIC, S. aureus SA1708; conditions: Staphylococcus aureus
Excerpt: as §2

[8] = system: Spn 106 S. pneumonia ATCC49619; experiment: broth dilution MIC, S. pneumoniae Spn 106; conditions: Streptococcus pneumoniae; Spn 106 S. pneumonia ATCC49619; read-out: MIC
Excerpt: as §2

[9] = system: Spn160 S. pneumoniae ermB unknown mefA positive; experiment: broth dilution MIC, S. pneumoniae Spn160; conditions: Streptococcus pneumoniae; Spn160 S. pneumoniae ermB unknown mefA positive; read-out: MIC
Excerpt: as §2

[10] = system: Spn1509 S. pneumoniae ermB positive mefA negative; experiment: broth dilution MIC, S. pneumoniae Spn1509; conditions: Streptococcus pneumoniae
Excerpt: as §2

[11] = system: Spn1533 S. pneumoniae ermB positive mefA positive; experiment: broth dilution MIC, S. pneumoniae Spn1533; conditions: Streptococcus pneumoniae
Excerpt: as §2

[12] = system: Spn1537 S. pneumoniae ermB positive mefA positive; experiment: broth dilution MIC, S. pneumoniae Spn1537; conditions: Streptococcus pneumoniae
Excerpt: as §2

[13] = system: Spn1427 S. pneumoniae ermB positive mefA negative; experiment: broth dilution MIC, S. pneumoniae Spn1427; conditions: Streptococcus pneumoniae
Excerpt: as §2

EC107 E. coli ATCC25922 = experiment: broth dilution MIC, E. coli EC107; conditions: Escherichia coli, read-out: MIC
Summary of the method: as §1

EC878 E. coli tolC = experiment: broth dilution MIC, E. coli EC878; conditions: Escherichia coli
Summary of the method: as §1

EC882 E. coli imp = experiment: broth dilution MIC, E. coli EC882; conditions: Escherichia coli
Summary of the method: as §1

[14] = system: BS1723 B. subtilis BS168 WT wild type; experiment: broth dilution MIC, B. subtilis BS1723; conditions: Bacillus subtilis, BS1723 B. subtilis BS168 WT wild type; read-out: MIC
Summary of the method: as §1

BS1725 B. subtilis ermC = experiment: broth dilution MIC, B. subtilis BS1725; conditions: Bacillus subtilis
Summary of the method: as §1

[15] = system: HI175 H. influenzae ATCC49247; experiment: broth dilution MIC, H. influenzae HI175; conditions: Haemophilus influenzae
Excerpt: as §2

[16] = system: S. aureus (Newman, clinical isolate); experiment: MIC, S. aureus Newman; conditions: Staphylococcus aureus, S. aureus (Neuman, clinical isolate), round 2
Excerpt: as §2

E. coli (MC4100) = experiment: MIC, E. coli MC4100; conditions: Escherichia coli, round 2, read-out: MIC
Excerpt: as §2

E. coli strains = experiment: MIC against E. coli strains (Table M7); conditions: Escherichia coli, ATCC25922, E. coli ATCC 25922
Summary of the method: as §1

S. aureus strains = experiment: MIC against S. aureus strains (Table M7); conditions: Staphylococcus aureus
Summary of the method: as §1

S. pneumoniae strains = experiment: MIC against S. pneumoniae strains (Tables M7, M8); conditions: Streptococcus pneumoniae
Excerpt: CLSI standard procedures for broth dilution MIC determination were used. […] These genotypes can be constitutive or inducible.

E. faecalis strains = experiment: MIC against E. faecalis strains (Table M8); conditions: Enterococcus faecalis, E. faecalis 29212
A. baumannii strains = experiment: MIC against A. baumannii strains (Table M8); conditions: Acinetobacter baumannii, BAA747, A. baumannii BAA747-1
K. pneumoniae strains = experiment: MIC against K. pneumoniae strains (Table M8); conditions: Klebsiella pneumoniae, K. pneumoniae 10031
H. influenzae strains = experiment: MIC against H. influenzae strains (Table M8); conditions: Haemophilus influenzae
Summary of the method: as §1

[17] = ATCC29213, SA101 S. aureus ATCC29213, read-out: MIC
[18] = SA557 S. aureus ermA unknown msrA positive, read-out: MIC
[19] = Spn1509 S. pneumoniae ermB positive mefA negative, read-out: MIC

| SMILES | MIC [2] [µg/mL] | MIC [3] [µg/mL] | MIC [4] [µg/mL] | MIC [6] [µg/mL] | MIC [7] [µg/mL] | MIC [8] [µg/mL] | MIC [9] [µg/mL] | MIC [11] [µg/mL] | MIC [12] [µg/mL] | MIC [13] [µg/mL] | MIC (EC107 E. coli ATCC25922) [µg/mL] | MIC (EC878 E. coli tolC) [µg/mL] | MIC (EC882 E. coli imp) [µg/mL] | MIC [14] [µg/mL] | MIC (BS1725 B. subtilis ermC; BS1725 B. subtilis ermC (+ery)) [µg/mL] | MIC [1, 17] [µg/mL] | MIC [5, 18] [µg/mL] | MIC [10, 19] [µg/mL] | MIC [15] [µg/mL] | also measured |
| --- | --- | --- | --- | --- | --- | --- | --- | --- | --- | --- | --- | --- | --- | --- | --- | --- | --- | --- | --- | --- |
| CCC[C@@H]1C[C@@H](C(=O)N[C@@H]([C@H]2O[C@H](SC)[C@H](O)[C@@H](O)[C@H]2O)[C@H](C)Cl)N(C)C1 [Clindamycin, clindamycin, reference compound] | > 32 | 0.0625 to 0.125 (≈ 0.147 to 0.294 µM) | > 32 | 0.0625 to 0.125 (≈ 0.147 to 0.294 µM) | 0.25 (≈ 0.588 µM) | 0.0312 (≈ 0.0734 µM) | 0.0156 to 0.0312 (≈ 0.0367 to 0.0734 µM) | > 32 | > 32 | > 32 | > 32 | 2 (≈ 4.71 µM) | 2 (≈ 4.71 µM) | 1 (≈ 2.35 µM) | 4 (≈ 9.41 µM) | – | – | – | – | MIC ([1]; ATCC29213): 0.125 µg/mL (≈ 0.294 µM); MIC [5]: 0.125 µg/mL (≈ 0.294 µM); MIC [10]: 16 to 32 µg/mL (≈ 37.6 to 75.3 µM); MIC (BS1725 B. subtilis ermC; BS1725 B. subtilis ermC (−ery)): 2 µg/mL (≈ 4.71 µM) |
| CC[C@H]1OC(=O)C(C)(F)C(=O)[C@@H](C)[C@@H](O[C@@H]2OC(C)CC(N(C)C)C2O)[C@](C)(OC)C[C@@H](C)CN[C@H](C)[C@H]2N(CCCCn3cc(-c4cccc(N)n4)nn3)C(=O)O[C@]12C (some centres unmarked) [FSM-20718] | > 32 | 16 (≈ 18.9 µM) | > 32 | 32 (≈ 37.8 µM) | 16 (≈ 18.9 µM) | 0.0156 to 0.25 (≈ 0.0184 to 0.295 µM) | 0.25 to 1 (≈ 0.295 to 1.18 µM) | > 32 | > 32 | 4 to 32 (≈ 4.72 to 37.8 µM) | > 32 | 1 (≈ 1.18 µM) | 0.125 (≈ 0.148 µM) | 8 (≈ 9.44 µM) | > 32 | 8 (≈ 9.44 µM) | 8 (≈ 9.44 µM) | 0.5 to 4 (≈ 0.59 to 4.72 µM) | 2 to 16 (≈ 2.36 to 18.9 µM) | – |
| CC[C@H]1OC(=O)C(C)(F)C(=O)[C@@H](C)[C@@H](O[C@@H]2OC(C)CC(N(C)C)C2O)[C@](C)(OC)C[C@@H](C)CN[C@H](C)[C@H]2N(CCCCn3cc(-c4nccs4)nn3)C(=O)O[C@]12C (some centres unmarked) [FSM-20721] | > 32 | 16 (≈ 19.1 µM) | > 32 | 16 (≈ 19.1 µM) | 16 (≈ 19.1 µM) | 0.125 to 0.25 (≈ 0.149 to 0.298 µM) | 0.5 to 1 (≈ 0.597 to 1.19 µM) | > 32 | > 32 | > 32 | > 32 | 1 (≈ 1.19 µM) | 0.25 (≈ 0.298 µM) | 8 (≈ 9.55 µM) | > 32 | 8 (≈ 9.55 µM) | 16 (≈ 19.1 µM) | 8 to 16 (≈ 9.55 to 19.1 µM) | 8 to 32 (≈ 9.55 to 38.2 µM) | – |
| CC[C@H]1OC(=O)[C@H](C)C(=O)[C@H](C)[C@@H](O[C@@H]2OC(C)CC(N(C)C)C2O)/C(C)=C/CN(C)[C@H](C)[C@H]2N(CCCCn3cc(-c4cccc(N)c4)nn3)C(=O)O[C@]12C (some centres unmarked) [FSM-30633] | – | – | – | – | – | – | – | – | – | – | – | – | – | – | – | – | – | – | – | MIC [16]: > 32 µg/mL; MIC (E. coli (MC4100)): > 32 µg/mL; MIC (E. coli strains): > 32 µg/mL; MIC (S. aureus strains; ATCC29213, S. aureus ATCC 29213, read-out: MIC S. aureus (ATCC 29213)): > 32 µg/mL; MIC (S. aureus strains; S. aureus 506, read-out: MIC S. aureus (506)): > 32 µg/mL; MIC (S. aureus strains; S. aureus 1708, read-out: MIC S. aureus (1708)): > 32 µg/mL; MIC (S. aureus strains; USA300, S. aureus USA300, read-out: MIC S. aureus (USA300)): > 32 µg/mL; MIC (S. pneumoniae strains; S. pneumoniae 160, read-out: MIC S. pneumonae (160)): > 32 µg/mL; MIC (S. pneumoniae strains; S. pneumoniae 1509, read-out: MIC S. pneumoniae (1509)): > 32 µg/mL; MIC (S. pneumoniae strains; S. pneumoniae 1533, read-out: MIC S. pneumoniae (1533)): > 32 µg/mL; MIC (S. pneumoniae strains; S. pneumoniae 1537, read-out: MIC S. pneumoniae (1537)): > 32 µg/mL; MIC (S. pneumoniae strains; S. pneumoniae 49619, read-out: MIC S. pneumoniae (49619)): > 32 µg/mL; MIC (E. faecalis strains): > 32 µg/mL; MIC (A. baumannii strains): > 32 µg/mL; MIC (K. pneumoniae strains): > 32 µg/mL; MIC (H. influenzae strains; H. influenzae 49247, read-out: MIC H. influenzae (49247)): 32 µg/mL (≈ 40.9 µM); MIC (H. influenzae strains; H. influenzae 49766, read-out: MIC H. influenzae (49766)): > 32 µg/mL |
